Among the test systems are CAKI-1 renal; HL-60(TB) leukemia; HS 578T breast; LOX IMVI melanoma; MDA-MB-231 breast; MDA-MB-435; MOLT-4 leukemia; OVCAR-5 ovarian; SF-295 CNS; SK-OV-3 ovarian.
Holding throughout (test): inhibition of tumour cell growth, NCI panel, 48 h

Values joined by “and” are separate entries in the source; they are usually repeats but may differ in a detail not shown here. Equal values may be shown once.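 96-well plates; 48 h exposure; 5 concentrations. Endpoints by linear interpolation between flanking doses. Not reached: highest tested concentration assigned. Here, GI50 denotes the concentration required for 50% inhibition of growth. Definition used: TGI = concentration required for complete inhibition of growth.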 Some results are limits rather than exact numbers.

For the compound `CCN(CC)CCOc1nc2cc(OC)c(OC)cc2c2c1-c1ccc(OC)cc1C2=O`, the GI50 in the assay on CAKI-1 renal is 10.3 µM; with HL-60(TB) leukemia, 13.4 µM; with HS 578T breast it was 20.4 µM; in the assay on LOX IMVI melanoma, 1.27 µM; with MDA-MB-231 breast it was 13 µM; with MDA-MB-435, 13.3 µM. For the same compound, the GI50 was 1.91 µM with MOLT-4 leukemia, 21.2 µM in the assay on OVCAR-5 ovarian, 0.117 µM in the assay with SF-295 CNS and 13.2 µM in the assay on SK-OV-3 ovarian. Moreover, the TGI in the assay on CAKI-1 renal was 22.5 µM; with HL-60(TB) leukemia, 34.6 µM; with HS 578T breast it was 44.9 µM; in the assay on LOX IMVI melanoma, 2.7 µM; in the assay with MDA-MB-231 breast, 26.9 µM; in the assay with MDA-MB-435, 26 µM. Moreover, the TGI in the assay with MOLT-4 leukemia is 17.6 µM; in the assay with OVCAR-5 ovarian it was 36.4 µM; in the assay on SF-295 CNS, 0.597 µM; in the assay with SK-OV-3 ovarian it was 26 µM.

As to `CC[C@H](C)[C@H](NC(=O)c1nccn1C)C(=O)N(C)[C@H](C[C@@H](OC(C)=O)c1nc(C(=O)N[C@@H](Cc2ccccc2)C[C@H](C)C(=O)OC)cs1)C(C)C`, the GI50 is 0.642 µM in the assay on HL-60(TB) leukemia; 1.11 µM with HS 578T breast; 1.59 µM with LOX IMVI melanoma; 1.17 µM in the assay with MDA-MB-231 breast; 0.0944 µM in the assay on MDA-MB-435; 1.65 µM in the assay on MOLT-4 leukemia. Besides, the GI50 with OVCAR-5 ovarian was 2.23 µM; in the assay with SF-295 CNS, 0.639 µM; in the assay with SK-OV-3 ovarian, 1.72 µM. For the same compound, the TGI with HL-60(TB) leukemia is 1.78 µM; with HS 578T breast it was greater than 33.3 µM; with LOX IMVI melanoma, greater than 33.3 µM; in the assay on MDA-MB-231 breast, 22 µM; in the assay on MDA-MB-435, 0.428 µM; in the assay with MOLT-4 leukemia, greater than 33.3 µM. The values for the TGI in the assay on OVCAR-5 ovarian, with SF-295 CNS and with SK-OV-3 ovarian were greater than 33.3 µM, 2.07 µM and greater than 33.3 µM, respectively.

For `COc1ccc(/C=C/c2cnc3ccccc3n2)cc1OC`, the TGI with CAKI-1 renal, in the assay on HL-60(TB) leukemia, with HS 578T breast, in the assay with LOX IMVI melanoma, in the assay on MDA-MB-231 breast and in the assay on MDA-MB-435 was greater than 100 µM each time. In addition, the TGI with MOLT-4 leukemia, in the assay on OVCAR-5 ovarian, in the assay with SF-295 CNS and in the assay on SK-OV-3 ovarian was greater than 100 µM in each case.

For `O=c1oc2cc(OS(=O)(=O)c3ccccc3)ccc2c2c1CCCCC2`, the GI50 in the assay on CAKI-1 renal is 7.38 µM; in the assay on HL-60(TB) leukemia, 2.05 µM; in the assay with HS 578T breast it was greater than 100 µM; with LOX IMVI melanoma it was 8.71 µM; with MDA-MB-231 breast it was greater than 100 µM; in the assay on MDA-MB-435, 9.44 µM. For the same compound, the GI50 in the assay with MOLT-4 leukemia was 4.35 µM; in the assay with OVCAR-5 ovarian it was greater than 100 µM; with SF-295 CNS it was greater than 100 µM; in the assay on SK-OV-3 ovarian it was greater than 100 µM. Also, the TGI in the assay with CAKI-1 renal was greater than 100 µM; in the assay on HL-60(TB) leukemia, 8.54 µM; with HS 578T breast, greater than 100 µM; in the assay with LOX IMVI melanoma, greater than 100 µM; with MDA-MB-231 breast, greater than 100 µM; in the assay with MDA-MB-435, greater than 100 µM. Besides, the TGI with MOLT-4 leukemia, in the assay on OVCAR-5 ovarian, with SF-295 CNS and in the assay on SK-OV-3 ovarian was greater than 100 µM in each case.

On to `C=C1C(=O)O[C@H]2[C@H]1CC/C(COC(=O)/C=C/c1c[nH]c3ccccc13)=C\CC[C@@]1(C)O[C@@H]21`, for which the GI50 with HL-60(TB) leukemia is 0.256 µM; in the assay with HS 578T breast it was 0.353 µM; in the assay on MDA-MB-231 breast it was 0.177 µM; with MDA-MB-435, 0.222 µM; with MOLT-4 leukemia, 0.302 µM; in the assay on OVCAR-5 ovarian, 0.315 µM. The results for the GI50 in the assay with SF-295 CNS and with SK-OV-3 ovarian were 1.62 µM and 1.88 µM, respectively. Besides, the TGI was 0.717 µM in the assay with HL-60(TB) leukemia; 2.92 µM in the assay with HS 578T breast; 0.374 µM in the assay on MDA-MB-231 breast; 0.582 µM in the assay on MDA-MB-435; 1.78 µM in the assay with MOLT-4 leukemia; 1.38 µM in the assay on OVCAR-5 ovarian. Besides, the figures for the TGI with SF-295 CNS and with SK-OV-3 ovarian were 3.14 µM and 3.59 µM, respectively.

With `Cc1c(N)nc(C(CC(N)=O)NCC(N)C(N)=O)nc1C(=O)NC(C(=O)NC(C)C(O)C(C)C(=O)NC(C(=O)NCCc1nc(-c2nc(C(=O)NCCCNCCCCN)cs2)cs1)C(C)O)C(OC1OC(CO)C(O)C(O)C1OC1OC(CO)C(O)C(OC(N)=O)C1O)c1cnc[nH]1` (stereo not drawn), the GI50 in the assay with CAKI-1 renal is 0.845 µg/mL and 2.94 µg/mL; in the assay with HL-60(TB) leukemia, 11.8 µg/mL; with HS 578T breast, 5.69 µg/mL and 0.24 µg/mL; with LOX IMVI melanoma it was 0.324 µg/mL and 0.149 µg/mL; with MDA-MB-435 it was 15.9 µg/mL; in the assay with MOLT-4 leukemia, 4.22 µg/mL and 2.23 µg/mL. The GI50 in the assay with OVCAR-5 ovarian is 45.6 µg/mL; in the assay with SF-295 CNS it was 0.603 µg/mL and 0.261 µg/mL; in the assay on SK-OV-3 ovarian, 8.67 µg/mL. Moreover, the TGI was 2.38 µM with CAKI-1 renal; 38.4 µg/mL in the assay on HS 578T breast; 3.47 µg/mL and 10.3 µg/mL and > 10 µM with LOX IMVI melanoma; greater than 10 µM in the assay on OVCAR-5 ovarian; 12 µg/mL and 4.04 µM in the assay with SF-295 CNS; greater than 10 µM with SK-OV-3 ovarian.

With `O=C(O)c1cc2c(c3ccsc13)-c1ccccc1CC2`, the GI50 in the assay with CAKI-1 renal was 52 µM; in the assay with HL-60(TB) leukemia, 37.5 µM; in the assay on HS 578T breast, 30.5 µM; in the assay on LOX IMVI melanoma, 40.8 µM; in the assay with MDA-MB-231 breast, 27.6 µM; in the assay on MDA-MB-435 it was 42.7 µM. Further, the values for the GI50 with OVCAR-5 ovarian, in the assay on SF-295 CNS and in the assay on SK-OV-3 ovarian were 60.2 µM, 29.5 µM and 85.1 µM, respectively. Further, the TGI was greater than 100 µM in the assay on CAKI-1 renal; greater than 100 µM in the assay on HL-60(TB) leukemia; 88.9 µM in the assay on HS 578T breast; greater than 100 µM in the assay with LOX IMVI melanoma; greater than 100 µM with MDA-MB-231 breast; greater than 100 µM in the assay on MDA-MB-435. Besides, the TGI with OVCAR-5 ovarian, in the assay with SF-295 CNS and with SK-OV-3 ovarian was greater than 100 µM in each case.

For the compound `Cc1ccc(/C=C2\CN(Cc3cn(CCNc4ccnc5cc(Cl)ccc45)nn3)C/C(=C\c3ccc(C)cc3)C2=O)cc1`, the GI50 with HL-60(TB) leukemia is 2.23 µM; in the assay on HS 578T breast, 1.97 µM; in the assay with LOX IMVI melanoma, 1.76 µM; in the assay on MDA-MB-231 breast, 2.14 µM; in the assay with MDA-MB-435 it was 1.66 µM; in the assay with OVCAR-5 ovarian, 1.8 µM. Moreover, the GI50 is 1.99 µM in the assay with SF-295 CNS and 1.9 µM in the assay on SK-OV-3 ovarian. The TGI amounted to 5.26 µM in the assay on HL-60(TB) leukemia; 5.53 µM with HS 578T breast; 3.36 µM in the assay with LOX IMVI melanoma; 4.62 µM in the assay with MDA-MB-231 breast; 3.1 µM in the assay on MDA-MB-435; 3.54 µM in the assay with OVCAR-5 ovarian. The TGI in the assay with SF-295 CNS stood at 3.73 µM; with SK-OV-3 ovarian it was 3.57 µM.

For the origin of these results see PubChem BioAssay (NCI).
